≈ marks a conversion by molar mass, not a printed value.

In one test the test system is DU-145. In words: Cytotoxicity against human DU-145 cells assessed as cell growth inhibition. It is filed as functional.
For a further test, the system named is HepG2. Kind of test: Cytotoxicity against human HepG2 cells assessed as inhibition of cell growth. It is filed as functional, cell-based. To be noted: for IC50: hepg2.
The subject of the next test is SK-HEP1. In words: Cytotoxicity against human SK-HEP1 cells assessed as cell growth inhibition. It is filed as functional.
In test [1] the test system is MDA-MB-231. In words: Cytotoxicity against human MDA-MB-231 cells assessed as cell growth inhibition. It is filed as functional, cell-based.
The next test concerns NUGC-3. Kind of test: Cytotoxicity against human NUGC-3 cells assessed as cell growth inhibition. It is filed as functional.
The test system of the next test is MCF7. In words: Cytotoxicity against human MCF7 cells assessed as inhibition of cell growth. It is filed as functional, cell-based.
Test [2] in a line: Activation of procaspase-3 (unknown origin). Further details: species or system Homo sapiens.
For the next test, the system named is HT-29. In words: Antiproliferative activity against human HT-29 cells assessed as inhibition of cell growth. It is filed as functional, cell-based.
In another test the test system is NCI-H226. Kind of test: Antiproliferative activity against human NCI-H226 cells assessed as inhibition of cell growth. It is filed as functional, cell-based.
Test [3] has as its system MDA-MB-231. In words: Potency index, ratio of PAC-1 IC50 to test compound IC50 for antiproliferative activity against human MDA-MB-231 cells assessed as inhibition of cell growth. Particulars: pooled result: one value given for 5 cell lines, strains, targets or settings. It is filed as functional.
In the next test the test system is SK-N-SH. Kind of test: Antiproliferative activity against human SK-N-SH cells assessed as inhibition of cell growth. It is filed as functional, cell-based.
A further test has as its system MKN-45. In words: Antiproliferative activity against human MKN-45 cells assessed as inhibition of cell growth. It is filed as functional, cell-based.
The test system of the next test is A549. Kind of test: Antiproliferative activity against human A549 cells assessed as cell growth inhibition. It is filed as functional, cell-based.
The target in test [4] is Prostaglandin G/H synthase 1 (Homo sapiens, UniProt P23219). Kind of test: Inhibition of COX-1 (unknown origin).
Prostaglandin G/H synthase 1, sequence (P23219 whole entry): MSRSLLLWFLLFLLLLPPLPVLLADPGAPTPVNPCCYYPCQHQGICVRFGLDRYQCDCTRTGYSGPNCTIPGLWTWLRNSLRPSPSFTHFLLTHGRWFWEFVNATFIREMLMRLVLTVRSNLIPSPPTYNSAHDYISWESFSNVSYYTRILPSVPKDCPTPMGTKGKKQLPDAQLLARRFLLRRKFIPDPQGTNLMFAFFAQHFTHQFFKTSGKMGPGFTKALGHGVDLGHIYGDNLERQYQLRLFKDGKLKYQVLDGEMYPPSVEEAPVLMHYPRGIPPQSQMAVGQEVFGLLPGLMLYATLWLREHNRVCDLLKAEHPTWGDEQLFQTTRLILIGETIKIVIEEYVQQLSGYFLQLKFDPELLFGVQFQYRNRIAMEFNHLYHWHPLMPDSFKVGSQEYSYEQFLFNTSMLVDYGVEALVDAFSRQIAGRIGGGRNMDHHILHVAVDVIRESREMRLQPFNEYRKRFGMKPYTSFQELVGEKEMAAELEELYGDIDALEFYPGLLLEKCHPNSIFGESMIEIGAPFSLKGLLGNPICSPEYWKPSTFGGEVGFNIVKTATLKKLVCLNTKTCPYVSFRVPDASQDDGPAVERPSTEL
In test [5] the target is T1, Prostaglandin G/H synthase 2 (Homo sapiens, UniProt P35354).
T1 sequence (P35354 whole entry): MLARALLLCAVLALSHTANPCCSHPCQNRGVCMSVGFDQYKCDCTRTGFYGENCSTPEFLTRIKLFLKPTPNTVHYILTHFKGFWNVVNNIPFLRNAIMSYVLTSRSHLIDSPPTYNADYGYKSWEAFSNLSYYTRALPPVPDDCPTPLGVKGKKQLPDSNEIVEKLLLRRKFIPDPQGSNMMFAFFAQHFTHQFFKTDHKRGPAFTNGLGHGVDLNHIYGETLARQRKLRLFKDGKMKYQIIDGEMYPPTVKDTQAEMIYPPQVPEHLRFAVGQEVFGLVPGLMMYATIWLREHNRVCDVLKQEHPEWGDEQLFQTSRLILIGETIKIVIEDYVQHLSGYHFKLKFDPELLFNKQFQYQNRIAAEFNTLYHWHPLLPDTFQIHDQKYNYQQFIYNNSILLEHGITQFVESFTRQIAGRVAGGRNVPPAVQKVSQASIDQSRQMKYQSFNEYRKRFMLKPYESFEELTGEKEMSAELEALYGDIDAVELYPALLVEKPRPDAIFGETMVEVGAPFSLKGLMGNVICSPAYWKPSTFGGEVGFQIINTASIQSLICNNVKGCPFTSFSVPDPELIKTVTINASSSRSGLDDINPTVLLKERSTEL
Kind of test: Inhibition of COX-2 (unknown origin).

The test system of the next test is HeLa. In words: Antiproliferative activity against human HeLa cells assessed as cell growth inhibition. It is filed as functional, cell-based.
For a further test, the system named is C6. In words: Cytotoxicity against rat C6 cells assessed as inhibition of cell growth. It is filed as functional, cell-based.
For test [6], the target named is Tyrosine-protein kinase ABL1 (Mus musculus, UniProt P00520, T315I). In words: Inhibition of Abl T315I mutant in mouse BaF3 cells. It is filed as cell-based.
Tyrosine-protein kinase ABL1 (Mus musculus, UniProt P00520, T315I), sequence (P00520 whole entry T315I): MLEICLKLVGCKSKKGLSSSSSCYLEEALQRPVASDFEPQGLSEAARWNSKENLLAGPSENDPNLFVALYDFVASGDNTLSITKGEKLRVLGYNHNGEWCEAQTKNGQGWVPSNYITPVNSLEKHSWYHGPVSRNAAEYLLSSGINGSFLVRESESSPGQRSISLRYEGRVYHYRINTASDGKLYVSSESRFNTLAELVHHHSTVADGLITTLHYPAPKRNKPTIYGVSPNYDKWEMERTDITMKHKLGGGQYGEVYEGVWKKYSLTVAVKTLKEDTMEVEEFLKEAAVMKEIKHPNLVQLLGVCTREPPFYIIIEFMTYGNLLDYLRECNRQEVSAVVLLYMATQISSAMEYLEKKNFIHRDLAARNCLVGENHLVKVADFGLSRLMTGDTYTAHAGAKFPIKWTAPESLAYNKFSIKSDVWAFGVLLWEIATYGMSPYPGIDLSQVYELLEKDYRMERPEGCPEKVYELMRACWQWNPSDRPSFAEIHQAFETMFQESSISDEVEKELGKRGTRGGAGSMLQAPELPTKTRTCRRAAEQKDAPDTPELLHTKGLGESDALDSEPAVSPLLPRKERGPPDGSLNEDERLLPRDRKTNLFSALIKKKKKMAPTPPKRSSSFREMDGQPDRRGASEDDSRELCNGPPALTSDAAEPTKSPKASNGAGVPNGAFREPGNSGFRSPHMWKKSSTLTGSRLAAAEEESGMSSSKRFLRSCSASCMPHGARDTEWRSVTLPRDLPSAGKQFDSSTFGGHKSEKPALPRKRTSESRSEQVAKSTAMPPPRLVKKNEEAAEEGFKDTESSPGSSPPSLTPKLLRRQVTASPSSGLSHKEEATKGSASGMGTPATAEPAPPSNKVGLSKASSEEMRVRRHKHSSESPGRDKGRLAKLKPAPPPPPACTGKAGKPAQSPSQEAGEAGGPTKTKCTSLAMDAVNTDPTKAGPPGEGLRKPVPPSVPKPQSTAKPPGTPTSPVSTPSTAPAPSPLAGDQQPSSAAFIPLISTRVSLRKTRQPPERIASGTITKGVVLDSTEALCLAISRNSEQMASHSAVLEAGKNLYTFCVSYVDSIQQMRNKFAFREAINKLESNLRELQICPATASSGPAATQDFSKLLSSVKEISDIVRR
Test [7] concerns the target Tyrosine-protein kinase ABL1 (Mus musculus, UniProt P00520). In words: Inhibition of wild type Abl in mouse BaF3 cells. It is filed as cell-based.

Tyrosine-protein kinase ABL1 (Mus musculus, UniProt P00520), sequence (P00520 whole entry): as the sequence (P00520 whole entry T315I) above, with I315T counted along it

With `O=C(CNS(=O)(=O)c1cc(Cl)ccc1Cl)N1CCN(c2nc3ccccc3s2)CC1`, the CC50 is 9000 nM in the test on DU-145 and 8000 nM with HepG2 (Homo sapiens, HepG2).
With `O=C(Nc1nc2ccc([N+](=O)[O-])cc2s1)c1ccc(C(F)(F)F)cc1`, the 50% growth inhibitory concentration (GI50) with SK-HEP1, in the test with MDA-MB-231 [1] and in the test with NUGC-3 was 860 nM throughout.
For the molecule `O=C(CNS(=O)(=O)c1ccc(Cl)cc1)N1CCN(c2nc3ccccc3s2)CC1`, the CC50 in the test with DU-145 was 8000 nM.
Turning to `Cc1ccc2nc(N/N=C/c3cccnc3Nc3ccccc3)sc2c1`, in the test with MCF7, the IC50 worked out at 1690 nM.
For the molecule `Cc1ccc(Nn2c(SCC(=O)Nc3nc4ccc(C)cc4s3)nc(C)c2C)cc1`, in the test on HepG2, the IC50 was 26.3 µg/mL (≈ 60.2 µM).
With `CN(C)Cc1ccc2nc(NC(=O)N/N=C/c3ccc(OCc4ccc(C(F)(F)F)cc4)cc3O)sc2c1`, a half-maximal effect in test [2] (EC50) was put at 310 nM. The IC50 with HT-29, in the test on NCI-H226, with MDA-MB-231 [1], in the test with SK-N-SH and in the test on MKN-45 was 240 nM throughout. Further, in the test with MDA-MB-231 [3], the “Ratio IC50” value is on record as 4.24.
For `CC1=NNC(=O)/C1=N/Nc1cccc(-c2nc3ccccc3s2)c1`, the IC50 with A549 is greater than 25000 nM; in test [4], 9560 nM; in test [5], 100 nM; in the test on MCF7, greater than 25000 nM.
For `COc1cccc(-n2cc(CNc3ccc(-c4nc5ccccc5s4)cc3)nn2)c1`, the GI50 in the test on A549, in the test with HeLa and in the test with MDA-MB-231 [1] was 200 nM each time.
In turn, `C=CCc1cccc(/C=N/NC(=O)CN2CCN(Cc3ccccc3)CC2)c1O` [PAC-1] yielded an EC50 in test [2] of 410 nM.
Turning to `CC1=NN(c2ccccc2)C(=O)/C1=N/Nc1cccc(-c2nc3ccccc3s2)c1`, the IC50 in the test on A549 came to 12300 nM; in [4] it was 9560 nM; in [5] it was 100 nM; in the test on MCF7 it was 12300 nM.
As for `O=C(CN1CCN(c2ccccc2F)CC1)Nc1ccc(-c2nc3ccccc3s2)cc1`, the GI50 with A549, with HeLa and in the test with MDA-MB-231 [1] was 200 nM each time.
For the molecule `Cc1nc(SCC(=O)Nc2nc3ccc(Cl)cc3s2)n(Nc2ccc([N+](=O)[O-])cc2)c1C`, the IC50 in the test with HepG2 was greater than 500 µg/mL.
As for `Cc1ccc2nc(N/N=C/c3cccnc3Nc3ccc(Cl)cc3)sc2c1`, in the test on MCF7, the IC50 is 1030 nM.
The same measure, in the same setting: the same measure for `Nc1ccc(-c2nc3ccccc3s2)cc1`: 0.3 nM.
As to `CC(=O)N1N=C(C)/C(=N\Nc2cccc(-c3nc4ccccc4s3)c2)C1=O`, the 50% inhibitory concentration (IC50) in the test on A549 was determined as 12300 nM; in [4], 9560 nM; in test [5], 100 nM; in the test with MCF7, 12300 nM.
Consider `Cc1nc(SCC(=O)Nc2nc3ccccc3s2)n(Nc2ccc([N+](=O)[O-])cc2)c1C`, for which the figures for the half-inhibitory concentration (IC50) in the test on C6 and in the test with HepG2 were 24.3 µg/mL (≈ 53.5 µM) and 28.7 µg/mL (≈ 63.1 µM), respectively.
For the molecule `COc1ccc2nc(NC(=O)CSc3nc(C)c(C)n3Nc3ccc([N+](=O)[O-])cc3)sc2c1`, the IC50 with C6 and in the test with HepG2 was greater than 500 µg/mL in each case.
Consider `Cc1ccc2nc(NC(=O)CSc3nc(C)c(C)n3Nc3ccc([N+](=O)[O-])cc3)sc2c1`, for which the IC50 in the test with C6 was found to be 15.7 µg/mL (≈ 33.4 µM).
For the molecule `O=C(CN1CCN(c2ccccc2)CC1)Nc1ccc(-c2nc3ccccc3s2)cc1`, the GI50 with A549, in the test on HeLa and in the test on MDA-MB-231 [1] was 200 nM in each case.
For the molecule `COc1ccccc1-c1ccc2nc(NC(=O)NCCO)sc2c1`, the IC50 was found to be 140 nM in [6] and 89 nM in test [7].
In the case of `Cc1ccc(N2CCN(CC(=O)Nc3ccc(-c4nc5ccccc5s4)cc3)CC2)cc1`, the GI50 in the test on A549, in the test with HeLa and in the test with MDA-MB-231 [1] was 200 nM throughout.
With `Cc1cc(C)c2sc(NC(=O)c3ccc(C#N)cc3)nc2c1`, the 50% growth inhibitory concentration (GI50) in the test on SK-HEP1, in the test on MDA-MB-231 [1] and in the test on NUGC-3 was 290 nM throughout.

A word on the CC50: it is the concentration giving 50% cytotoxicity. The GI50 is the concentration giving 50% growth inhibition. As a reminder, the IC50 is the point on the concentration scale where inhibition reaches its midpoint. A word on the EC50: it is the midpoint of the concentration-response curve. A high value points to a less potent agent.

These data come from ChEMBL document CHEMBL5230113, “2-substituted benzothiazoles as antiproliferative agents: Novel insights on structure-activity relationships” (Eur J Med Chem, 2020).
